Biological target: T1, ΔF508 mutant CFTR (Homo sapiens, UniProt P13569, DEL508-508)
T1 construct: expressed in transfected cells; host or cells: Fischer rat thyroid (FRT) cells
Test: Fluorescence (YFP halide quenching) assay of ΔF508 mutant CFTR activity in FRT cells
Assay type: cell-based
Set-up: key: fold of mean activity with forskolin alone (I− quenching rate)
Details: FRT cells expressing ΔF508-CFTR and YFP-H148Q/I152L, rescued at 27° C. 20-24 h; forskolin 20 μM + test compound 20 μM for 20 min; I− influx rate normalized to forskolin alone
Description: The ΔF508 mutant CFTR activities of the CFTR modulators are detected using the Fluorescence Assay developed by Pedemonte (Pedemonte N., et al., Antihypertensive 1,4-dihydropyridines as correctors of the cystic fibrosis transmembrane conductance regulator channel gating defect caused by cystic fibrosis mutations, Mol. Pharmacol., 2005, 68, 1736-1746).
Fischer rat thyroid (FRT) cells, stably transfected with ΔF508 were retransfected with the YFP-H148Q/I152L fluorescent protein. The cells were plated (100,000 cells/well) on black 96-well microplates with clear plastic bottom (Corning Life Sciences, Acton, Mass.).
The 96-well microplates containing FRT cells expressing F508-CFTR and the halide-sensitive YFP were incubated at 27° C. for 20 to 24 h to allow rescue of the mutant protein to the plasma membrane. After incubation, cells were washed with PBS (containing 137 mM NaCl, 2.7 mM KCl, 8.1 mM Na2HPO4, 1.5 mM KH2PO4, 1 mM CaCl2, and 0.5 mM MgCl2) and stimulated for 20 min with forskolin (20 μM) and test compounds (20 μM) in a final volume of 60 μl. Microplates were then transferred to a microplate reader for CFTR activity determination. Each assay consisted of a continuous 14-s fluorescence reading (5 points per second) with 2 s before and 12 s after injection of 165 μl of an iodide-containing solution (PBS with Cl^− replaced by I^−). Final iodide concentration in the wells was 100 mM. […] To determine I^− influx rate, the final 11 s of the data for each well were fitted with an exponential function to extrapolate initial slope. CFTR activity was determined by measuring the rate of fluorescence quenching induced by extracellular addition of I^−. Data are normalized to the mean activity measured in the presence of forskolin alone.

T1 sequence (P13569 with tags, fused parts or gaps DEL508-508): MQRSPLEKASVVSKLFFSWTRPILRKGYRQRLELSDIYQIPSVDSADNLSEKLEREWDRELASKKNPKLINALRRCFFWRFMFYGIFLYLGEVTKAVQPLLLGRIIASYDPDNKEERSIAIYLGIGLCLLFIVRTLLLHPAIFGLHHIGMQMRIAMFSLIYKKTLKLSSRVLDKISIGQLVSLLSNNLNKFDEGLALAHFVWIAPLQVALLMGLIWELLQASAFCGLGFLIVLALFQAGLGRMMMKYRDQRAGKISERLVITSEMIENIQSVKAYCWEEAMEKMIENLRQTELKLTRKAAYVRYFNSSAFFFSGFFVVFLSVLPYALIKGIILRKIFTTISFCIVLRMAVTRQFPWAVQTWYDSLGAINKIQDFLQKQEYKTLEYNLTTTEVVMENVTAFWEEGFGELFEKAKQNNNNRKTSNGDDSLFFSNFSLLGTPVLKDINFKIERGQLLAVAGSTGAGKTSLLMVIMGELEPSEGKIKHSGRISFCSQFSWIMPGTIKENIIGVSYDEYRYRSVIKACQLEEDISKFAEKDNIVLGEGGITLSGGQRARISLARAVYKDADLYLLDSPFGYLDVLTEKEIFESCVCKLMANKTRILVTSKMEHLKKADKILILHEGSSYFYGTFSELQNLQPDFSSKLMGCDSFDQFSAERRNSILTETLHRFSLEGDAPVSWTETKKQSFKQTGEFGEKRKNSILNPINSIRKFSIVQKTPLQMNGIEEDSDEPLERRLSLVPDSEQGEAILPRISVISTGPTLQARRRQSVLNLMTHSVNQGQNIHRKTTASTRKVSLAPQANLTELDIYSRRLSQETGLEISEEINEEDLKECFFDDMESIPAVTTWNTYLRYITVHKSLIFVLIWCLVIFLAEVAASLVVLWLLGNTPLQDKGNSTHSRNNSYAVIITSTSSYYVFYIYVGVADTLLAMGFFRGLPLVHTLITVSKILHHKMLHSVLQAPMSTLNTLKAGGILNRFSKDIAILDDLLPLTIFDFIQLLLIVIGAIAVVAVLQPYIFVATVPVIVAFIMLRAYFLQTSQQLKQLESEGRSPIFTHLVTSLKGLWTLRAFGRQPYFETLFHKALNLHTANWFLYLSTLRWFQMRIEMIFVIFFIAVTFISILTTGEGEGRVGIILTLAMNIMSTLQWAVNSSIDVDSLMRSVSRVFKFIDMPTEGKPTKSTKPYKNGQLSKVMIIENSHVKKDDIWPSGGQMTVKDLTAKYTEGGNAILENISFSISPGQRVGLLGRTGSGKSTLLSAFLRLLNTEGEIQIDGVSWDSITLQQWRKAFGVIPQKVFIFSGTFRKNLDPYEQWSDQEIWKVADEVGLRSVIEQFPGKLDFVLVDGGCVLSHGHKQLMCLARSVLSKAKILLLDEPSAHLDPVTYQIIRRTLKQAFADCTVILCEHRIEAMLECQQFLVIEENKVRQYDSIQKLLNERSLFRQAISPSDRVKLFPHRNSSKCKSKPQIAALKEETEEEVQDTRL

O=C(Nc1cncnc1OCC1CCOCC1)c1ccc(C(F)(F)F)c(-c2c(F)cccc2F)n1 [Example 47, 6-(2,6-difluorophenyl)-N-(4-((tetrahydro-2H-pyran-4-yl)methoxy)pyrimidin-5-yl)-5-(trifluoromethyl)picolinamide]
CFTR Activity: 0.1

Cl.Nc1cc(C(F)(F)F)c(-c2c(F)cccc2F)nc1C(=O)Nc1cncnc1OC1CCCNCC1 (stereo not drawn) [Example 48, 3-amino-N-(4-(azepan-4-yloxy)pyrimidin-5-yl)-6-(2,6-difluorophenyl)-5-(trifluoromethyl)picolinamide hydrochloride]
CFTR Activity: 4.1

Cl.Nc1cc(C(F)(F)F)c(-c2c(F)cccc2F)nc1C(=O)Nc1cncnc1OCC1CCNCC1 [Example 49, 3-amino-6-(2,6-difluorophenyl)-N-(4-(piperidin-4-ylmethoxy)pyrimidin-5-yl)-5-(trifluoromethyl)picolinamide hydrochloride]
CFTR Activity: 3.2

Cl.Nc1cc(C(F)(F)F)c(-c2c(F)cccc2F)nc1C(=O)Nc1cncnc1OCC1CNC1 [Example 50, 3-amino-N-(4-(azetidin-3-ylmethoxy)pyrimidin-5-yl)-6-(2,6-difluorophenyl)-5-(trifluoromethyl)picolinamide hydrochloride]
CFTR Activity: 2.9

Cl.Nc1cc(C(F)(F)F)c(-c2c(F)cccc2F)nc1C(=O)Nc1cncnc1OC1CCNCC1 [Example 51, 3-amino-6-(2,6-difluorophenyl)-N-(4-(piperidin-4-yloxy)pyrimidin-5-yl)-5-(trifluoromethyl)picolinamide hydrochloride]
CFTR Activity: 4.0

Cl.Nc1cc(C(F)(F)F)c(-c2c(F)cccc2F)nc1C(=O)Nc1cncnc1O[C@H]1CC[C@H](N)CC1 [Example 52, 3-amino-N-(4-(((1r,4r)-4-aminocyclohexyl)oxy)pyrimidin-5-yl)-6-(2,6-difluorophenyl)-5-(trifluoromethyl)picolinamide hydrochloride]
CFTR Activity: 4.3

Cl.Nc1cc(C(F)(F)F)c(-c2ccccc2)nc1C(=O)Nc1cncnc1OC1CCNC1 (stereo not drawn) [Example 53, 3-amino-6-phenyl-N-(4-(pyrrolidin-3-yloxy)pyrimidin-5-yl)-5-(trifluoromethyl)picolinamide hydrochloride]
CFTR Activity: 2.4

Cl.NCC(CCl)COc1ncncc1NC(=O)c1ccc(C(F)(F)F)c(-c2c(F)cccc2F)n1 (stereo not drawn) [Example 54, N-(4-(3-amino-2-(chloromethyl)propoxy)pyrimidin-5-yl)-6-(2,6-difluorophenyl)-5-(trifluoromethyl)picolinamide hydrochloride]
CFTR Activity: 2.0

Cl.NCC(CCl)COc1ncncc1NC(=O)c1nc(-c2c(F)cccc2F)c(C(F)(F)F)cc1N (stereo not drawn) [Example 55, 3-amino-N-(4-(3-amino-2-(chloromethyl)propoxy)pyrimidin-5-yl)-6-(2,6-difluorophenyl)-5-(trifluoromethyl)picolinamide hydrochloride]
CFTR Activity: 4.4

Cl.NCC(CO)COc1ncncc1NC(=O)c1ccc(F)c(-c2c(F)cccc2F)n1 (stereo not drawn) [Example 56, N-(4-(3-amino-2-(hydroxymethyl)propoxy)pyrimidin-5-yl)-6-(2,6-difluorophenyl)-5-fluoropicolinamide hydrochloride]
CFTR Activity: 2.5

Cl.NCC(CO)COc1ncncc1NC(=O)c1nc(-c2c(F)cccc2F)c(F)cc1N (stereo not drawn) [Example 57, 3-amino-N-(4-(3-amino-2-(hydroxymethyl)propoxy)pyrimidin-5-yl)-6-(2,6-difluorophenyl)-5-fluoropicolinamide hydrochloride]
CFTR Activity: 2.1

Cl.NCC(CO)COc1ncncc1NC(=O)c1ccc(C(F)(F)F)c(-c2c(F)cccc2F)n1 (stereo not drawn) [Example 58, N-(4-(3-amino-2-(hydroxymethyl)propoxy)pyrimidin-5-yl)-6-(2,6-difluorophenyl)-5-(trifluoromethyl)picolinamide hydrochloride]
CFTR Activity: 2.8

Cl.NCC(CO)COc1ncncc1NC(=O)c1nc(-c2c(F)cccc2F)c(C(F)(F)F)cc1N (stereo not drawn) [Example 59, 3-amino-N-(4-(3-amino-2-(hydroxymethyl)propoxy)pyrimidin-5-yl)-6-(2,6-difluorophenyl)-5-(trifluoromethyl)picolinamide hydrochloride]
CFTR Activity: 3.0

Cl.NC1CCCC(Oc2ncncc2NC(=O)c2ccc(C(F)(F)F)c(-c3c(F)cccc3F)n2)C1 (stereo not drawn) [Example 60, N-(4-((3-aminocyclohexyl)oxy)pyrimidin-5-yl)-6-(2,6-difluorophenyl)-5-(trifluoromethyl)picolinamide hydrochloride]
CFTR Activity: 4.8

Cl.Nc1cc(C(F)(F)F)c(-c2c(F)cccc2F)nc1C(=O)Nc1cncnc1OC1CCCC(N)C1 (stereo not drawn) [Example 61, 3-amino-N-(4-((3-aminocyclohexyl)oxy)pyrimidin-5-yl)-6-(2,6-difluorophenyl)-5-(trifluoromethyl)picolinamide hydrochloride]
CFTR Activity: 4.2
